In patent publication US20020123471A1, “LENTIVIRUS BASED VECTOR AND VECTOR SYSTEM” (priority 1997, published 2002) one finds inhibition data, which are given here for one compound.

This test deals with SIV[SIV] or SIV[MLV] vector particles. As to the kind of experiment: Inhibition of retroviral transfer of V1-luc into CEMx174 cells by reverse transcriptase inhibitor. It is filed as cell-based. To be noted: Simian immunodeficiency virus, CEMx174, read-out: transfer of V1-luc inhibited.

The structures appear in SMILES notation.

Regarding `Cc1cn([C@H]2C[C@H](N=[N+]=[N-])[C@@H](CO)O2)c(=O)[nH]c1=O` [Zidovudine, 3′-azido-2′,3′-dideoxythymidine], the inhibition at 10 µM amounted to 90%.
